Assay results: article PMC12449377, “Psychedelic-like effects induced by 2,5-dimethoxy-4-iodoamphetamine, lysergic acid diethylamide, and psilocybin in male and female C57BL/6J mice” (Psychopharmacology, 2025)
Where two headings read alike, the source gives them in different places.

Assays:
5-HT2A = target: T1, 5-HT2A (Mus musculus, UniProt P35363); assay: Competition binding vs [3H]M100907 in mouse brain membranes
T1 construct: tissue BioIVT; host or cells: whole C57BL/6 mouse brain minus cerebellum, male and female
Procedure: (§1) Competition binding studies were conducted in mouse brain tissue as previously described (Glatfelter et al. [2022b]). Briefly, the experiments utilized membranes prepared from whole C57BL/6 mouse brain minus cerebellum (BioIVT, Westbury, NY, USA). […] We assessed the ability of test drugs to compete for [^3H]M100907 binding at 5-HT2A (1 nM) or [^3H]8-OH-DPAT binding at 5-HT1A (0.5 nM). Radioligands were purchased commercially (PerkinElmer, Boston, MA, USA). Nonspecific binding was determined using 10 µM ketanserin for 5-HT2A and serotonin for 5-HT1A. All data represent 3 experiments performed in triplicate.
(§2) Concentration-response data were fit to a single site non-linear regression model. For the HTR studies, potencies were determined from the ascending limb of the dose-response curves using ED50 potency values from [agonist] vs. response (variable slope, four parameter) least squares fit non-linear regression analyses, whereas efficacy was defined by the top output parameter or Emax from the aforementioned analyses. […] Best-fit values for ED50 and Emax from non-linear regression analyses were compared by extra sum-of-squares F tests. Mean effects for each behavioral endpoint were compared using two-way ANOVA (dose x sex), followed by Sidak’s multiple comparisons post-hoc test. Mean effects for pooled mouse behavioral data were compared via Welch’s ANOVA with Dunnett’s T3 post-hoc test, comparing all doses to saline vehicle controls (0 mg/kg). Alpha was set to 0.05 for all analyses.

C57BL/6J mice [1] = assay: Locomotor activity (distance traveled) in mice; type: in vivo, mouse; details: for Locomotor Activity (cm) Mean: 30 min
Procedure: (§3) At 1–2 weeks prior to the beginning of experiments, mice were habituated to handling and receiving s.c. saline injections. On the day of an experiment, mice were acclimated to the testing room in their home cage for at least 30 min prior to the start of sessions. Prior to each session, mice were weighed, and resting body temperatures were recorded. Mice were then placed into experimental chambers for acclimation. Behavioral testing was carried out in TruScan mouse locomotor arenas equipped with photobeam arrays (Coulbourn Instruments, Holliston, MA, USA) that were modified with cylindrical inserts and transparent flooring to aid in semi-automated HTR detection as previously described (Glatfelter et al. [2022a]). After 5 min of acclimation, basal body temperature was recorded followed by s.c. injection of drug or vehicle, and mice were returned to test chambers for 30 min. Dose ranges for each drug were 0.03–10 mg/kg for DOI, 0.03–10 mg/kg for psilocybin, and 0.003–1 mg/kg for LSD. Mice were randomly assigned to specific doses at the beginning of the experiment and received different doses at each session.
(§4) During each session, locomotor activity was quantified via photobeam tracking of distance traveled in cm. Overhead GoPro Hero Black 7 video recordings (120 fps, 960p resolution) were analyzed using a commercially available software package from Clever Sys Inc. (Reston, VA, USA) for the measurement of HTR activity. Mouse body temperature was also collected post-session to calculate temperature change values (basal - post session temperature reading).
as §2

5-HT1A = target: T2, 5-HT1A (Mus musculus, UniProt Q64264); assay: Competition binding vs [3H]8-OH-DPAT in mouse brain membranes
T2 construct: tissue BioIVT; host or cells: whole C57BL/6 mouse brain minus cerebellum, male and female
T2 sequence (Q64264 1-421): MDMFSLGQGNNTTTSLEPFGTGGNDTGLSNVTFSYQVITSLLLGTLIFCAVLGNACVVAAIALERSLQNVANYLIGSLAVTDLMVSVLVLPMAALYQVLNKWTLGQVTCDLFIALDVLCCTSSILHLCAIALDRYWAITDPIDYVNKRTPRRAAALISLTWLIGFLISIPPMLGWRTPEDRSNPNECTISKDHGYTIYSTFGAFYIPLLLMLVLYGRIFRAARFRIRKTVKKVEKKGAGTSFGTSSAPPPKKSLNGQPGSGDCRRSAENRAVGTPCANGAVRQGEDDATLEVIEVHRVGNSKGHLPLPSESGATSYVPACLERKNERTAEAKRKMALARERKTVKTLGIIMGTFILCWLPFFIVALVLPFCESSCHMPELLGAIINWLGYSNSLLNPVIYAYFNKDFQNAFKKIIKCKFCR
Procedure: as §1, §2

C57BL/6J mice [2] = assay: Head twitch response (HTR) in mice; type: in vivo, mouse; details: for HTR (total events) Mean: 30 min; for ED50: Mus musculus, sc
Procedure: Each drug was tested using groups of 12 mice per sex (i.e., 24 total mice per drug). Experimental sessions were conducted once every 1–2 weeks for 2 months per drug. Experimental sessions were spaced apart by at least 1 week to minimize the potential for tolerance to drug effects (Canal and Morgan [2012]; Darmani et al. [1990a]; de la Fuente Revenga et al. [2022]). Experiments were conducted during the light phase (1300–1700 local time; lights on = 0700 in a 12/12 light/dark cycle).
as §3, §4, §2

[3] = male and female mouse brain membranes, summary statement

T1 sequence (P35363 whole entry): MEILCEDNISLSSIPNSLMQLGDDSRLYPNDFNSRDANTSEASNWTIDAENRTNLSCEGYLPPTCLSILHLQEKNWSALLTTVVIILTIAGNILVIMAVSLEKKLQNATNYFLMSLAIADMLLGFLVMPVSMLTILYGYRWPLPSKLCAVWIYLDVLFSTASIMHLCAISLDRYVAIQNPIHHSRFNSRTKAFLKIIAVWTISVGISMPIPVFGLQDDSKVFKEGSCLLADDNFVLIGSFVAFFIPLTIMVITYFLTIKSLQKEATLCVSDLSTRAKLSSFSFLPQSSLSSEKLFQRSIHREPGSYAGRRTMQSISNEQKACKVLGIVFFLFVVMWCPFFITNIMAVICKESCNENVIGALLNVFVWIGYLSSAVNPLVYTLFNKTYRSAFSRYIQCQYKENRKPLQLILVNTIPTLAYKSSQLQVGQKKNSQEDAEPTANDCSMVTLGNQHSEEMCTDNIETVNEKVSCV

Structure (SMILES): COc1cc(CC(C)N)c(OC)cc1I (stereo not drawn) [DOI, 2,5-dimethoxy-4-iodoamphetamine]
- Ki (5-HT2A; [3H]M100907 Binding ♀ m5-HT2A Ki, female mouse brain membranes): 11 nM
- Ki (5-HT2A; [3H]M100907 Binding ♂ m5-HT2A Ki, male mouse brain membranes): 13 nM
- 5-HT2A binding affinity (Ki), males and females (5-HT2A; [3]): low nanomolar affinity
- Locomotor Activity (cm) Mean (C57BL/6J mice [1]; 0.03 mg/kg s.c., female mice): 2149 cm
- Locomotor Activity (cm) Mean (C57BL/6J mice [1]; 0.03 mg/kg s.c., male mice): 2753 cm
- Locomotor Activity (cm) Mean (C57BL/6J mice [1]; 0.03 mg/kg s.c., pooled sexes): 2408 cm
- Locomotor Activity (cm) Mean (C57BL/6J mice [1]; 0.1 mg/kg s.c., female mice): 2292 cm
- Locomotor Activity (cm) Mean (C57BL/6J mice [1]; 0.1 mg/kg s.c., male mice): 3045 cm
- Locomotor Activity (cm) Mean (C57BL/6J mice [1]; 0.1 mg/kg s.c., pooled sexes): 2606 cm
- Locomotor activity effect (C57BL/6J mice [1]; 1 mg/kg s.c.): marginal increase
- Locomotor Activity (cm) Mean (C57BL/6J mice [1]; 1 mg/kg s.c., female mice): 3246.7 cm
- Locomotor Activity (cm) Mean (C57BL/6J mice [1]; 1 mg/kg s.c., male mice): 4033.6 cm
- Locomotor Activity (cm) Mean (C57BL/6J mice [1]; 1 mg/kg s.c., pooled sexes): 3640 cm
- Locomotor Activity (cm) Mean (C57BL/6J mice [1]; 3 mg/kg s.c., female mice): 3192.6 cm
- Locomotor Activity (cm) Mean (C57BL/6J mice [1]; 3 mg/kg s.c., male mice): 3289.3 cm
- Locomotor Activity (cm) Mean (C57BL/6J mice [1]; 3 mg/kg s.c., pooled sexes): 3241 cm
- Locomotor Activity (cm) Mean (C57BL/6J mice [1]; 10 mg/kg s.c., female mice): 2459.7 cm
- Locomotor Activity (cm) Mean (C57BL/6J mice [1]; 10 mg/kg s.c., male mice): 2529.1 cm
- Locomotor Activity (cm) Mean (C57BL/6J mice [1]; 10 mg/kg s.c., pooled sexes): 2492 cm
- Ki (5-HT1A; [3H]8-OH-DPAT Binding ♀ m5-HT1A Ki, female mouse brain membranes): 2650 nM
- Ki (5-HT1A; [3H]8-OH-DPAT Binding ♂ m5-HT1A Ki, male mouse brain membranes): 2870 nM
- 5-HT1A binding affinity (Ki), males and females (5-HT1A; [3]): µM affinity
- HTR (total events) Mean (C57BL/6J mice [2]; 0.03 mg/kg s.c., female mice): 12.5 total events
- HTR (total events) Mean (C57BL/6J mice [2]; 0.03 mg/kg s.c., male mice): 8.8 total events
- HTR (total events) Mean (C57BL/6J mice [2]; 0.03 mg/kg s.c., pooled sexes): 10.7 total events
- HTR (total events) Mean (C57BL/6J mice [2]; 0.1 mg/kg s.c., female mice): 19.7 total events
- HTR (total events) Mean (C57BL/6J mice [2]; 0.1 mg/kg s.c., male mice): 22.4 total events
- HTR (total events) Mean (C57BL/6J mice [2]; 0.1 mg/kg s.c., pooled sexes): 20.8 total events
- HTR (total events) Mean (C57BL/6J mice [2]; 0.3 mg/kg s.c., female mice): 59.0 total events
- HTR (total events) Mean (C57BL/6J mice [2]; 0.3 mg/kg s.c., male mice): 57.3 total events
- HTR (total events) Mean (C57BL/6J mice [2]; 0.3 mg/kg s.c., pooled sexes): 58.2 total events
- HTR (total events) Mean (C57BL/6J mice [2]; 1 mg/kg s.c., female mice): 91.2 total events
- HTR (total events) Mean (C57BL/6J mice [2]; 1 mg/kg s.c., male mice): 89.7 total events
- HTR (total events) Mean (C57BL/6J mice [2]; 1 mg/kg s.c., pooled sexes): 90.4 total events
- HTR (total events) Mean (C57BL/6J mice [2]; 3 mg/kg s.c., female mice): 108.8 total events
- HTR (total events) Mean (C57BL/6J mice [2]; 3 mg/kg s.c., male mice): 106.8 total events
- HTR (total events) Mean (C57BL/6J mice [2]; 3 mg/kg s.c., pooled sexes): 107.8 total events
- HTR (total events) Mean (C57BL/6J mice [2]; 10 mg/kg s.c., female mice): 148.7 total events
- HTR (total events) Mean (C57BL/6J mice [2]; 10 mg/kg s.c., male mice): 103.3 total events
- HTR (total events) Mean (C57BL/6J mice [2]; 10 mg/kg s.c., pooled sexes): 126.0 total events
- ED50 (C57BL/6J mice [2]; female mice, ascending limb of dose-response curve, read-out: HTR ♀ ED50 (95% CI)): 0.52 mg/kg
- ED50 (C57BL/6J mice [2]; male mice, ascending limb of dose-response curve, read-out: HTR ♂ ED50 (95% CI)): 0.3 mg/kg
- ED50 (C57BL/6J mice [2]; pooled male and female mice, read-out: HTR ♂+♀ ED50 (95% CI)): 0.33 mg/kg
- Duration of HTR effect in the session (C57BL/6J mice [2]; peak/active doses, 30 min session): lasted throughout the entire 30 min session
- Time of peak effects on HTR post drug administration (C57BL/6J mice [2]; s.c., both sexes, 30 min session): 5 to 10 min
- HTR ♀ Emax (95% CI) (C57BL/6J mice [2]; s.c., female mice, top of regression fit): 131 (118–146) HTR events
- HTR ♂ Emax (95% CI) (C57BL/6J mice [2]; s.c., male mice, top of regression fit): 105 (93–118) HTR events
- HTR ♂+♀ Emax (95% CI) (C57BL/6J mice [2]; s.c., pooled male and female mice): 111 (101–127) HTR events
